Assays:
MAP-rich tubulin = test: Tubulin polymerization test procedure with MAP-rich tubulin; format: biochemical, bovine; details: MAP-rich tubulin with 1 mM GTP, compound 0.3 μM, at 20 min
Protocol: (§1) Medium is RPMI-1640 with L-glutamine, supplemented with 10% heat-inactivated fetal calf serum, 100 units/mL penicillin, and 100 μg/mL streptomycin (Gibco, Grand Island, N.Y.). Microtubule-associated protein (MAP)-rich tubulin, containing about 70% tubulin and 30% MAPs (#ML113), and highly purified tubulin (>99% pure, #TL238), both from bovine brain, are obtained from Cytoskeleton, Inc., Denver, Colo. PEM buffer (80 mM piperazine-N,N′-bis[2-ethanesulfonic acid], pH 6.9, 1 mM ethylene glycol-bis(β-aminoethyl ether)-N,N,N′,N′-tetraacetic acid, 1 mM magnesium chloride) and guanosine 5′-triphosphate (GTP) are also obtained from Cytoskeleton. [^3H]paclitaxel, specific activity 14.7 Ci/mmol, is purchased from Moravek Biochemicals (Brea, Calif.). [^3H]vinblastine, specific activity 9.60 Ci/mmol and MicroSpin G-50 columns are obtained from Amersham Biosciences (Piscataway, N.J.). […] Other reagents are obtained from Sigma (St. Louis, Mo.).
MAP-rich tubulin is dissolved in ice-cold PEM buffer containing 1 mM GTP (GPEM buffer) at a concentration of 1.3 mg/mL. The solution is centrifuged at top speed in an Eppendorf model 5415C microcentrifuge (Brinkmann Instruments, Westbury, N.Y.) for 10 min at 40 immediately before use. The tubulin solution is added to wells of a ½-area 96-well plate (Costar No. 3696, Corning, Inc., Corning, N.Y.) already containing the compounds of interest. Each compound is tested in duplicate at a final concentration of 0.3 μM in a volume of 110 μL per well. The final DMSO concentration in all wells is 0.3%. Control reactions, which receive compound solvent only, are done in quadruplicate. The plate is put in a SpectraMax Plus plate reader (Molecular Devices Corp. Sunnyvale, Calif.) thermostated at 240 and the absorbance of each well at 340 nm, a measure of the appearance of turbidity due to tubulin polymer formation, is determined every minute for 60 minutes. The absorbance at time 0 for each well is subtracted from each of the subsequent absorbance readings for that well, and then the duplicates are averaged.
In this assay, control reactions with MAP-rich tubulin show an S-shaped absorbance profile characterized by three phases: first, a lag phase during which no change in absorbance occurs; second, a polymerization phase in which absorbance increases; and third, a plateau phase in which absorbance has reached a maximum and little or no further change occurs. Polymerization enhancers such as paclitaxel and docetaxel shorten or eliminate the lag phase, increase the rate of the polymerization phase, and often increase the height of the plateau. […] This has been expressed quantitatively in Table 6 by dividing the mean A340 of each sample at 20 min by the mean A340 of the control at 20 min to give a fold enhancement over control. […]

pure tubulin = test: Tubulin polymerization test procedure with pure tubulin; format: biochemical, bovine; details: pure tubulin without added GTP
Protocol: as §1
The procedure with pure tubulin is similar except for the following changes. […] The supernatant after centrifugation is dispensed to a ½-area 96-well plate already containing compounds. Each compound is tested in duplicate at a final concentration of 24.3 μM. The plate reader μs thermostated at 35°.

[1] = system: highly purified tubulin (tubulin heterodimer); test: Competitive binding test procedure, [3H]vinblastine; set-up: species or system bovine; details: competitor 100 μM, [3H]vinblastine 100 nM
Protocol: as §1
(§2) The binding of examples of this invention to highly purified tubulin is studied by competitive inhibition methods. […] To study possible competition at the taxane site, on the other hand, polymerized tubulin (microtubules) is used because paclitaxel binds preferentially to microtubules.
(§3) Highly purified tubulin is dissolved in PEM buffer without GTP and used at a final concentration of 1.0 to 1.3 mg/ml (10 to 13 μM). […] These solutions are incubated at 240 for 1 hr and then applied to MicroSpin G-50 columns which are centrifuged for 2 min at 3000 rpm in an Eppendorf 5415C microfuge. An aliquot of each column effluent (containing tubulin and bound radioligand) is mixed with scintillation fluid and counted in a liquid scintillation spectrometer. […] Quadruplicates are averaged, and the ability of the competitor to inhibit the binding of the radioligand is expressed as a percentage of control binding in the absence of any competitor.

[2] = system: highly purified tubulin (tubulin heterodimer); test: Competitive binding test procedure, [3H]colchicine; set-up: species or system bovine; details: competitor 100 μM, [3H]colchicine 50 nM
Protocol: as §1, §2, §3

[3] = system: polymerized tubulin (microtubules); test: Competitive binding test procedure, [3H]paclitaxel; set-up: species or system bovine; details: competitor 20 μM, [3H]paclitaxel 2.1 μM
Protocol: as §1, §2
For competition with [^3H]paclitaxel, highly purified tubulin is dissolved in PEM buffer containing 0.75 M glutamate and 25 μM dideoxy-GTP; final protein concentration is 0.25 to 0.35 mg/mL (2.5 to 3.5 μM). These conditions foster the rapid formation of short, stable microtubule polymers (Hamel, E., del Campo, A. A., and Lin, C. M. Stability of tubulin polymers formed with dideoxyguanosine nucleotides in the presence and absence of microtubule-associated proteins. J. Biol. Chem., 259: 2501-2508, 1984). […] The reactions are then centrifuged at top speed in an Eppendorf 5415C microfuge for 20 min at room temperature in order to pellet the microtubule protein. Triplicate aliquots of each supernatant are mixed with scintillation fluid and counted in a liquid scintillation spectrometer. From the amount of radioactivity in the supernatants and the measured total starting radioactivity, the amount of [^3H]paclitaxel bound to pelleted microtubule protein is calculated. The ability of each competitor to inhibit radioligand binding to pelleted protein is expressed as a percent of controls without any competitor.

## CC[C@]1(O)C[C@H]2CN(CCc3c([nH]c4ccccc34)[C@@](C(=O)OC)(c3cc4c(cc3OC)N(C=O)[C@H]3[C@@](O)(C(=O)OC)[C@H](OC(C)=O)[C@]5(CC)C=CCN6CC[C@]43[C@@H]65)C2)C1 [Vincristine, reference compound]
MAP-rich tubulin
  A340 Compound / A340 Control (fold enhancement over control): 0.5
Pure tubulin
  polymerization of pure tubulin without GTP (in words): no activity
[1]
  [3H]Vinblastine binding, Mean, percent of binding to control without competitor: 5%
[2]
  [3H]Colchicine binding, Mean, percent of binding to control without competitor: 99%
[3]
  [3H]Paclitaxel binding, Mean, percent of binding to control without competitor: 22%
